Reference: patent publication US4081548A, “Antibiotics” (Merck & Co., Inc., priority 1976, dated 1978)
In brackets after ≈: the same amount, converted by molar mass.

Columns and labels:
Escherichia coli 2017 = experiment: agar dilution method, Table 2; type: cell-based; settings: Mueller-Hinton agar, 18 hours, 37° C., strain resistance: --, read-out: Minimum Inhibitory Concentration
Method: (§1) A further evaluation of substantially pure antibiotic employed the agar dilution method. An inoculum of 2 × 10^4 to 1 × 10^5 organisms is applied as a 0.002 ml. droplet to the surface of Mueller-Hinton agar containing serial, twofold dilutions of antibiotic over the range 0.01 to 73 μg./ml. The results (Table 2) are reported as the minimum inhibitory concentration, in μg./ml., that being the lowest antibiotic concentration at which the growth of the test organism is inhibited over a period of 18 hours at 37° C.

Escherichia coli 2482 = experiment: agar dilution method, Table 2; type: cell-based; settings: Mueller-Hinton agar, 18 hours, 37° C., strain resistance: --, read-out: Minimum Inhibitory Concentration
Method: as §1

Escherichia coli 2964 = experiment: agar dilution method, Table 2; type: cell-based; settings: Mueller-Hinton agar, 18 hours, 37° C., strain resistance: P, read-out: Minimum Inhibitory Concentration
Method: as §1

Klebsiella 2921 = experiment: agar dilution method, Table 2; type: cell-based; settings: Mueller-Hinton agar, 18 hours, 37° C., strain resistance: P, read-out: Minimum Inhibitory Concentration
Method: as §1

Klebsiella 2922 = experiment: agar dilution method, Table 2; type: cell-based; settings: Mueller-Hinton agar, 18 hours, 37° C., strain resistance: P, read-out: Minimum Inhibitory Concentration
Method: as §1

Proteus mirabilis 2830 = experiment: agar dilution method, Table 2; type: cell-based; settings: Mueller-Hinton agar, 18 hours, 37° C., strain resistance: P, read-out: Minimum Inhibitory Concentration
Method: as §1

[1] = system: Pseudomonas aeruginosa 2616; experiment: agar dilution method, Table 2; type: cell-based; settings: Mueller-Hinton agar, 18 hours, 37° C., strain resistance: P, read-out: Minimum Inhibitory Concentration
Method: as §1

[2] = system: Pseudomonas aeruginosa 2824; experiment: agar dilution method, Table 2; type: cell-based; settings: Mueller-Hinton agar, 18 hours, 37° C., strain resistance: P, read-out: Minimum Inhibitory Concentration
Method: as §1

[3] = system: Pseudomonas aeruginosa 3210; experiment: agar dilution method, Table 2; type: cell-based; settings: Mueller-Hinton agar, 18 hours, 37° C., strain resistance: P, read-out: Minimum Inhibitory Concentration
Method: as §1

Serratia 2840 = experiment: agar dilution method, Table 2; type: cell-based; settings: Mueller-Hinton agar, 18 hours, 37° C., strain resistance: P, read-out: Minimum Inhibitory Concentration
Method: as §1

[4] = system: Staphylococcus aureus 2314; experiment: agar dilution method, Table 2; type: cell-based; settings: Mueller-Hinton agar, 18 hours, 37° C., strain resistance: P, read-out: Minimum Inhibitory Concentration
Method: as §1

Staph. aureus 2949 = experiment: in vivo efficacy in infected mice, Table 3; design: species or system Staphylococcus aureus; settings: 168 h, day 7 survival
Method: (§2) In determining the in vivo activity, thienamycin is dissolved in and diluted with 0.15M NaCl, 0.01M sodium phosphate, pH 7.0, to provide five fourfold concentrations of drug for testing. Female white Swiss mice, averaging about 21 g. in weight, were infected intraperitoneally and subcutaneously with the test organism suspended in broth. The numbers of organisms injected were determined by standard plate-count techniques. At the time of infection, and again 6 hours later, certain of the mice were treated intraperitoneally, subcutaneously and orally with the antibiotic. Five mice were used for each concentration of drug tested. An additional two mice, not infected, were treated with the antibiotic to determine whether the amount of agent injected was toxic. Controls of five mice for each of several dilutions of the infecting culture were included in each test in order to calculate the numbers of organisms that were lethal to 50% of the infected, untreated mice (LD50). This calculation was made using survival data of the seventh day after infection, at which time the amount of drug that should protect 50% of the infected mice (ED50) also was calculated.
(§3) All animals receiving this challenge and not treated with antibiotic died within 48 hours of the infection. The efficacy of thienamycin having a potency of 30,000 units per mg. is recorded in Table 3: […]

E. coli 2017 = experiment: in vivo efficacy in infected mice, Table 3; settings: Escherichia coli, 2017, ip, 168 h, i.p. x2 (at infection and 6 hours later), No. LD50 9, day 7 survival
Method: as §2, §3

[5] = system: Pseudomonas aeruginosa 3210; experiment: in vivo efficacy in infected mice, Table 3; settings: 168 h, No. LD50 7, day 7 survival
Method: as §2, §3

solubility = type: physicochemical
[6] = pKa from pH induced shift in ultraviolet absorption spectrum; type: physicochemical; settings: acidic function; 30 mM. phosphate buffer; read-out: pKa1
Method: Thienamycin is an internally neutralized amphoteric substance, whose acidic function has a pKa1 = 3.08 when measured in 30 mM. phosphate buffer, taking advantage of the pH induced shift in ultraviolet absorption spectrum.

[7] = stability in aqueous solution; type: physicochemical
inactivation by cysteine = type: physicochemical; settings: cysteine 4 μmoles per ml., pH 7.0, 20° C.
β-lactamase = β-lactamase (Enterobacter cloacae, UniProt P05364); experiment: exposure to β-lactamase preparations; type: biochemical; settings: β-lactamase from sonic disintegration of a strain of Enterobacter cloacae
Sequence of β-lactamase (P05364 21-381): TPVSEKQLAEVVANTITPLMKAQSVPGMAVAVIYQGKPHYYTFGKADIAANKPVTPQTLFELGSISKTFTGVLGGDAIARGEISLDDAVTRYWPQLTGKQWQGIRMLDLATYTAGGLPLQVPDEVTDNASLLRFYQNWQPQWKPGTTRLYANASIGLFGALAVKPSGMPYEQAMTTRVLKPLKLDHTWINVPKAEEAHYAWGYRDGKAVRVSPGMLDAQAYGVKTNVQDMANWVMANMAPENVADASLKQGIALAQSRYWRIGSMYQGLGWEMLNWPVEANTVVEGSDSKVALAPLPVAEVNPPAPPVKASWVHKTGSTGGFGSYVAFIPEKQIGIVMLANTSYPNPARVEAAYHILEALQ
Source text: Finally, antibiotic activity and absorbance are extinguished on exposure to preparations of β-lactamase obtained by the sonic disintegration of a strain of Enterobacter cloacae.

[8] = system: Staphylococcus aureus ATCC 6538P; experiment: disc-diffusion assay of antibacterial activity (5 ml plates); type: cell-based; settings: one unit = same inhibition as 1 μg. of cephalothin/ml.
Method: Assays of antibacterial activity are run according to the following disc-diffusion procedure unless otherwise indicated. The assay plates are prepared in the following manner. An overnight growth of the assay organism, Staphylococcus aureus ATCC 6538P, in nutrient broth plus 0.2% yeast extract is diluted with nutrient broth plus 0.2% yeast extract to a suspension having 55% transmittance at a wavelength of 660 mμ. This suspension is added to Difco nutrient agar supplemented with 2.0 g./l. Difco yeast extract, at 47° C. to 48° C., to make a composition containing 33.2 ml. of the suspension per liter of agar. Five ml. of this suspension is poured into petri dishes of 85 mm. diameter, and these plates are chilled and held at 4° C. until used (5 day maximum).
Samples of the antibiotic to be assayed are diluted to an appropriate concentration in phosphate buffer at pH 7. Filter-paper discs, 0.5-inch in diameter, are dipped into the test solution and placed on the surface of the assay plate; two discs for each sample are normally placed on one plate opposite to one another. The plates are incubated overnight at 37° C. and the zone of inhibition is measured as mm. diameter. The zone of inhibition measured in mm. determines relative potencies or, when compared with a purified reference standard such as cephalothin, the potency of antibiotic in units/ml. The unit of activity reported in Examples 4 through 7 is based on cephalothin standard solutions of 8, 4, 2 and 1 μg./ml. One unit is defined as the amount which calculates to produce the same inhibition as 1 μg. of cephalothin/ml. that zone of inhibition being between 16 and 21 mm. diameter.

[9] = Hydroxylamine-Extinguishable Absorbance; type: physicochemical; settings: pure thienamycin; 10 mM. hydroxylamine, pH 7.0, room temperature, at least 30 min., 297 nm
Method: The proportion of absorbance measured at 297 nm which can be attributed to the antibiotic content in impure samples is determined by the selective extinction of this absorbance (with concommitant inactivation of antibiotic activity) upon reaction with dilute hydroxylamine.
Samples are prepared in 0.01M potassium phosphate buffer at pH 7.0 to have an initial A297 between 0.05 and 2.0. Freshly prepared, neutral hydroxylamine (NH2 OH.HCl plus NaOH to a final pH of 7) is added to a final concentration of 10 mM., and reaction is allowed to progress at room temperature for at least 30 min. The resulting A297 when substracted from the initial reading (after correction for dilution by added reagent) yields the hydroxylamine-extinguishable absorbance. Solutions of pure thienamycin show a hydroxylamine-extinguishable absorbance of 94.5%.

`C[C@@H](O)[C@H]1C(=O)N2C(C(=O)O)=C(SCCN)C[C@H]12` [Thienamycin, thienamycin] showed an MIC (Escherichia coli 2017) of 0.15 µg/mL (≈ 0.551 µM), an MIC (Escherichia coli 2482) of 0.3 µg/mL (≈ 1.1 µM) and an MIC (Escherichia coli 2964) of 0.3 µg/mL (≈ 1.1 µM). It also gave an MIC (Klebsiella 2921) of 0.3 µg/mL (≈ 1.1 µM), an MIC (Klebsiella 2922) of 0.3 µg/mL (≈ 1.1 µM) and an MIC (Proteus mirabilis 2830) of 4.7 µg/mL (≈ 17.3 µM). It also gave an MIC [1] of 4.7 µg/mL (≈ 17.3 µM), an MIC [2] of 0.6 µg/mL (≈ 2.2 µM) and an MIC [3] of 2.4 µg/mL (≈ 8.81 µM). For the same compound, the MIC (Serratia 2840) was 4.7 µg/mL (≈ 17.3 µM), the MIC [4] was 0.02 µg/mL (≈ 0.0734 µM) and the ED50 (Staph. aureus 2949; Staphylococcus aureus, 2949, ip, mice, i.p. x2 (at infection and 6 hours later), No. LD50 7) was 0.012 mg/kg. For the same compound, the ED50 (Staph. aureus 2949; Staphylococcus aureus, 2949, po, mice fasted 24 hours, p.o. x2 (at infection and 6 hours later), No. LD50 13) was 0.67 mg/kg, the ED50 (Staph. aureus 2949; Staphylococcus aureus, 2949, sc, mice, s.c. x2 (at infection and 6 hours later), No. LD50 7) was 0.08 mg/kg and the ED50 (E. coli 2017) was 0.375 mg/kg. For the same compound, the ED50 ([5]; Pseudomonas aeruginosa, 3210, ip, i.p. x3 (at infection, 2 and 4 hours)) was 0.45 mg/kg, the ED50 ([5]; Pseudomonas aeruginosa, 3210, sc, s.c. x3 (at infection, 2 and 4 hours)) was 2.05 mg/kg and the solubility in methanol (solubility; methanol) was “limited solubility in methanol”. For the same compound, the solubility in water (solubility; water) was “very soluble in water”, the pKa [6] was 3.08 and the half-life ([7]; 1 mg./ml. in 10 mM. potassium phosphate, pH 7.0, 0° C.) was 53300 min. The half-life ([7]; 1 mg./ml. in water (pH 7.0), 0° C.) was 28800 min, the half-life ([7]; 12 mg./ml. in 10 mM. phosphate buffer, 10° C.) was 4320 min and the coloration on storage ([7]; 12 mg./ml. in 10 mM. phosphate buffer, 10° C., by the 48th hour, initially pale yellow) was “deep amber coloration”. The half-life ([7]; aqueous solution, pH 8.2, 30° C.) was 10 min, the “stability in aqueous solution” value ([7]; below 1 mg./ml., phosphate buffers, pH between 6 and 7) was “optimum stability” and the half-life ([7]; pH 2.0, 30 mM. phosphate buffer, room temperature) was 6.7 min. The half-life ([7]; pH 3.0, 30 mM. phosphate buffer, room temperature) was 30 min, the half-life ([7]; pH 4.0, 30 mM. phosphate buffer, room temperature) was 346 min and the half-life ([7]; pH 8.8 (borate buffer), 30° C.) was 5.7 min. For the same compound, the half-life ([7]; pH 12 (0.01M sodium hydroxide), 30° C.) was 2.1 min, the half-life (inactivation by cysteine) was 2.5 min and the “antibiotic activity and absorbance on exposure to β-lactamase” value (β-lactamase) was “extinguished”. The “potency (estimated / calculated)” value ([8]; estimated or calculated potency) was 30,140 units/mg, the potency [8] was 30,000 units/mg and the hydroxylamine-extinguishable absorbance [9] was 94.5%.
